Source: patent US6521611B2 (Eli Lilly and Company, priority 1996, dated 2003)
Bridge positions count the residues as written; N and C are the ends. Square brackets hold non-standard residues; d marks the D form. Peptide text beside a SMILES is read from it. Orn = NCCC[C@H](N)C(=O)O; Mpa = O=C(O)CCS

Experiments:
[1] = molecular target: T1, human vasopressin V1a receptor (Homo sapiens, UniProt P37288); experiment: human vasopressin V1a receptor binding, [3H]PMP-AVP, hV1a (CHO) cell membranes; settings: [3H]PMP-AVP 0.2 nM, read-out: BINDING AFFINITY (IC50 (nM))
T1 construct: expressed in transfected cells; host or cells: CHO (hV1a cell line), membrane preparation
T1 sequence (P37288 whole entry): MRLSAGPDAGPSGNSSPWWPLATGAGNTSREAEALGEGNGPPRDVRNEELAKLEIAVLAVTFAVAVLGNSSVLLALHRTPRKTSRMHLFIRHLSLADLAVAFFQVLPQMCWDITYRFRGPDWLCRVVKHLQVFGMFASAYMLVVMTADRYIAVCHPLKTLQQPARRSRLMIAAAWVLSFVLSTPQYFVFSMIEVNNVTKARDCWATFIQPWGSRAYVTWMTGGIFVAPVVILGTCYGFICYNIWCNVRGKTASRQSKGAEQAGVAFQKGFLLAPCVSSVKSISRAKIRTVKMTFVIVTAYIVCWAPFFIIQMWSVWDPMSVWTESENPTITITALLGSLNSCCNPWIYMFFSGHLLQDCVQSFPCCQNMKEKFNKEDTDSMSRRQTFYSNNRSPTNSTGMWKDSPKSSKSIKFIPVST
Protocol: The human vasopressin V1a receptor has been cloned and expressed (Thibonnier et al., Journal of Biological Chemistry, 269, 3304-3310 (1994)). The nucleotide sequence has been deposited in the EMBL Databank under accession number Z11690.
The hV1a cell line was grown in alpha-MEM (alpha modification of Minimum essential medium Eagle, Sigma, St. Louis, Mo., USA) with 10% fetal bovine serum and 250 μg/ml G418 (Gibco, Grand Island, N.Y., USA). To prepare membranes, hV1a cells were grown to confluency in 20 roller bottles. Cells were dissociated with enzyme-free cell dissociation medium (Specialty Media, Lavallette, N.J., USA) and centrifuged at 2500 rpm for 10 minutes. The pellet was resuspended in 40 mL of Tris-HCl (tris[hydroxymethyl]aminomethane hydrochloride) buffer (50 mM, pH 7.4) and homogenized for 1 minute with a Tekmar Tissumizer (Cincinnatti, Ohio USA). The suspension was centrifuged at 40,000×g for 10 minutes. The pellet was resuspended and centrifuged as above. The final pellet was suspended in 80 mL of Tris 7.4 buffer and stored in 4 mL aliquots at −80° C. For assay, aliquots were resuspended in assay buffer and diluted to 125 μg protein per mL. Protein concentration was determined by BCA assay (Pierce, Rockford, Ill., USA).
Assay buffer was prepared by adjusting the pH of a solution of 50 mMol HEPES (N-2-Hydroxyethylpiperazine-N′-2-ethanesulfonic acid, Sigma, St. Louis, Mo., USA), 5 mMol MgCl2, and 1 mMol dithiothreitol pH 7.4 with NaOH, after which 40 μg/mL bacitracin and 10 μg/mL aprotinin were added. The radioligand for binding assays was [^3H]PMP-AVP (Manning vasopressin antagonist, 56 Ci/mMol, DuPont NEN, Boston, MA, USA). The order of additions was 195 μL assay buffer, 200 μL hV1a membranes (25 μg protein) in assay buffer, 5 μL of test agent in dimethylsulfoxide (DMSO) or DMSO alone, and 100 μL [^3H]PMP-AVP in assay buffer (final concentration 0.2 nM). Incubations were for one hour at room temperature. […] The filters were washed with ice-cold 50 mM Tris-HCl (pH 7.7 at 25° C.) and the filter circles were placed in scintillation vials, to which were then added 5 mL Ready Protein Plus scintillation fluid, and counted in a liquid scintillation counter. […] IC50 values were calculated by nonlinear least-squares curve-fitting to a 4-parameter logistic model.

golden hamsters = experiment: vasopressin-induced flank marking in golden hamsters; assay type: in vivo, golden hamsters (Mesocricetus auratus); settings: microinjection into anterior hypothalamus as cocktail with 1 μM vasopressin; scored 10 minutes
Protocol: In golden hamsters, a particular stereotypy, flank marking behavior, can be induced by micro-injections of vasopressin ([…], 1-100 μM) into the anterior hypothalamus (Ferris, et al., Science, 224, 521-523 (1984); Albers and Ferris, Regulatory Peptides, 12, 257-260 (1985); Ferris et al., European Journal of Pharmacology, 154, 153-159 (1988)). Following the releasing stimulus, the behavior is initiated by grooming, licking and combing of the large sebaceous glands on the dorsolateral flanks. Bouts of flank gland grooming may be so intense that the flank region is left matted and soaked in saliva. After grooming, the hamsters display flank marking behavior, a type of scent marking involved in olfactory communication (Johnston, Physio. Behav., 51, 437-448 (1985); Ferris, et al., Physio. Behav., 40, 661-664 (1987)), by arching the back and rubbing the flank glands vigorously against any vertical surface.
All animals were adult male golden hamsters (Mesocricetus auratus) weighing approximately 160 gm. The animals underwent stereotaxic surgery, and were allowed to recover before behavioral testing. […]
The hamsters were microinjected with 1 μM vasopressin in a volume of […]. […] Animals were scored for flank marking for a period of 10 minutes in a clean cage.

preterm contractions = settings: studied clinically (Goodwin, et al., 1994); cited from earlier work

SMILES | IC50 [1] [nM] | also measured
CC(C)(C)C(=O)C(C(=O)OCc1ccccc1)N1C(=O)C(N2C(=O)OCC2c2ccccc2)C1C=Cc1ccccc1 (mixture of isomers) [Example 42, Benzyl 2-(R,S)-[2,2-dimethylpropanoyl]-2-[3(S)-(4(S)-phenyloxazolidin-2-on-3-yl)-4(R)-(2-styryl)azetidin-2-on-1-yl]acetate] |  | inhibition of vasopressin-induced flank marking (golden hamsters): inhibited vasopressin-induced flank marking in a dose dependent manner
CC(C)(C)OC(=O)C(C(=O)Cc1cccc(C(F)(F)F)c1)N1C(=O)C(N2C(=O)OCC2c2ccccc2)C1C=Cc1ccccc1 (mixture of isomers) [Example 50, tert-Butyl 2(R,S)-[3-(trifluoro)phenylacetyl]-2-[3(S)-(4(S)-phenyloxazolidin-2-on-3-yl)-4(R)-(2-styryl)-azetidin-2-on-1-yl]acetate] | 64 | melting point: 158 to 160 °C
CC(C)C[C@@H](C(=O)OCc1ccccc1)N1C(=O)[C@@H](N2C(=O)OC[C@@H]2c2ccccc2)[C@H]1CCc1ccccc1 [Example 28, Benzyl 2-(S)-isobutyl-2-[3(S)-(4(S)-phenyloxazolidin-2-on-3-yl)-4(R)-(2-(phenyl)-ethyl)-azetidin-2-on-1-yl]acetate] |  | melting point: 138 to 140 °C
CC1(C(C(=O)NCc2ccccc2)N2C(=O)C(N3C(=O)OCC3c3ccccc3)C2C=Cc2ccccc2)OCCO1 [Example 30, N-[Benzyl]-2-[(1,1-ethyleneketal)acetyl]-2-[3(S)-(4(S)-phenyloxazolidin-2-on-3-yl)-4(R)-(2-styryl)-azetidin-2-on-1-yl)acetamide] |  | melting point: 150 to 152 °C
CC(C)(C)C(O)C(C(=O)N1CCC(CCN2CCCCC2)CC1)N1C(=O)[C@@H](N2C(=O)OC[C@@H]2c2ccccc2)[C@H]1C=Cc1ccccc1 (stereo partly drawn) [Example 40, 1-{2-(R,S)-[1-hydroxy-2,2-dimethylpropyl]-2-[3(S)-(4(S)-phenyloxazolidin-2-on-3-yl)-4(R)-(2-styryl)-azetidin-2-on-1-yl]acetyl}-4-(2-(piperidin-1-yl)-ethyl)piperidine] | 40 | 
CCC1(C(C(=O)NCc2cccc(C(F)(F)F)c2)N2C(=O)[C@@H](N3C(=O)OC[C@@H]3c3ccccc3)[C@H]2/C=C/c2ccccc2)OCCO1 (stereo partly drawn) [Example 67] | 5 | 
CC(C)C[C@@H](C(=O)NCc1cccc(Cl)c1)N1C(=O)[C@@H](N2C(=O)OC[C@@H]2c2ccccc2)[C@H]1/C=C/c1ccccc1 [Example 109] | 40 | 
Cc1cccc(CNC(=O)[C@H](CC(C)C)N2C(=O)[C@@H](N3C(=O)OC[C@@H]3c3ccccc3)[C@H]2/C=C/c2ccccc2)c1 [Example 112] | 25 | 
CC(C)C[C@@H](C(=O)NCc1cccc(C(F)(F)F)c1)N1C(=O)[C@@H](N2C(=O)OC[C@@H]2c2ccccc2)[C@H]1/C=C/c1ccccc1 [Example 113] | 41 | 
CCOc1ccc(C[C@H]2NC(=O)CCSSC[C@@H](C(=O)N3CCC[C@H]3C(=O)N[C@@H](CCCN)C(=O)NCC(N)=O)NC(=O)[C@H](CC(N)=O)NC(=O)[C@H]([C@@H](C)O)NC(=O)[C@H]([C@@H](C)CC)NC2=O)cc1 [atosiban] ([Mpa][dY](Et)ITNCP[Orn]G-NH2; disulfide 1-6) |  | inhibition of preterm contractions versus placebo (preterm contractions): more significant inhibition of preterm contractions than did placebo

Continued, in another order:

IC50 [1] [nM] | SMILES | also measured
13 | COC(=O)C(N1C(=O)[C@H](N2C(=O)OC[C@H]2c2ccccc2)[C@@H]1C=Cc1ccco1)C(O)(C(=O)c1ccccc1)c1ccccc1 (mixture of isomers) [Example 39, Methyl 2-(R,S)-[1-hydroxy-1,2-diphenyl-2-oxo-ethyl]-2-[3(R)-(4(R)-phenyloxazolidin-2-on-3-yl)-4(S)-(1-(fur-2-yl)-ethylen-2-yl)-azetidin-2-on-1-yl]acetate] | 
11 | CC(C)(C)C(=O)C(C(=O)OCc1cccc(Cl)c1)N1C(=O)C(N2C(=O)OCC2c2ccccc2)C1C=Cc1ccccc1 (mixture of isomers) [Example 46, 3-Chlorobenzyl 2(R,S)-[2,2-dimethylpropanoyl]-2-[3(S)-(4(S)-phenyloxazolidin-2-on-3-yl)-4(R)-(2-styryl)-azetidin-2-on-1-yl]acetate] | 
28 | CC(C)(C)C[C@@H](C(=O)OCc1ccccc1)N1C(=O)[C@H](N2C(=O)OC[C@H]2c2ccccc2)[C@@H]1C=Cc1ccco1 [Example 27, Benzyl 2(S)-(2,2-dimethyl)propyl-2-[3(R)-(4(R)-phenyloxazolidin-2-on-3-yl)-4(S)-(1-(fur-2-yl)-ethylen-2-yl)-azetidin-2-on-1-yl]acetate] | melting point: 180 °C
23 | CCC1(C(C(=O)NCc2ccccc2)N2C(=O)C(N3C(=O)OCC3c3ccccc3)C2C=Cc2ccccc2)OCCO1 [Example 31, N-[benzyl]-2-[(1,1-ethyleneketal)propionyl]-2-[3(S)-(4(S)-phenyloxazolidin-2-on-3-yl)-4(R)-(2-styryl)-azetidin-2-on-1-yl]acetamide] | 
78 | CC(C)C[C@@H](C(=O)N1CCC(CCN2CCCCC2)CC1)N1C(=O)[C@@H](N2C(=O)OC[C@@H]2c2ccccc2)[C@H]1/C=C/c1ccccc1 [Example 34, 1-{2-(S)-isobutyl-2-[3(S)-(4(S)-phenyloxazolidin-2-on-3-yl)-4(R)-(2-styryl)-azetidin-2-on-1-yl]acetyl}-4-(2-(piperidin-1-yl)-ethyl)piperidine] | 
2 | CC(C)(C)C(=O)[C@H](C(=O)OCc1ccccc1)N1C(=O)[C@@H](N2C(=O)OC[C@@H]2c2ccccc2)[C@H]1C=Cc1ccco1 [Example 54A, Benzyl 2-(R)-[2,2-dimethylpropanoyl]-2-[3(S)-(4(S)-phenyloxazolidin-2-on-3-yl)-4(R)-(1-(fur-2-yl)ethylen-2-yl)-azetidin-2-on-1-yl]acetate] | 
9 | CC(C)(C)C(=O)[C@@H](C(=O)OCc1ccccc1)N1C(=O)[C@@H](N2C(=O)OC[C@@H]2c2ccccc2)[C@H]1C=Cc1ccco1 [Example 54B, Benzyl 2-(S)-[2,2-dimethylpropanoyl]-2-[3(S)-(4(S)-phenyloxazolidin-2-on-3-yl)-4(R)-(1-(fur-2-yl)ethylen-2-yl)-azetidin-2-on-1-yl]acetate] | 
16 | CCC1(C(C(=O)N2CCN(CCc3ccccc3)CC2)N2C(=O)[C@@H](N3C(=O)OC[C@@H]3c3ccccc3)[C@H]2/C=C/c2ccccc2)OCCO1 (stereo partly drawn) [Example 78] | 
42 | CC(C)C[C@@H](C(=O)NCCCN1CCN(C)CC1)N1C(=O)[C@@H](N2C(=O)OC[C@@H]2c2ccccc2)[C@H]1/C=C/c1ccccc1 [Example 97] | 
